Measured values as given in patent US20250188078A1, “SMALL MOLECULE INHIBITORS OF THE CRL4 UBIQUITIN LIGASE” (Cornell University, priority 2022, published 2025).
pEC50: −log10 of the molar value.

What was measured:
MCF7 breast cancer cells = test: Cell killing in MCF7 cells (CellTiter Glo); type: cell-based; conditions: Homo sapiens, MCF7, 192 h; Table 3, 0 to 20 μM compound, 8 days treatment
Procedure: CUL4A^high MDA-MB-468, CUL4^low (T47D), and MCF7 breast cancer cells were seeded in 96 well plates separately. Cells were treated with DMSO, or from 0 to 20 μM compound respectively. Replace with fresh medium and compounds every 48 hours. After 8 days treatment, cell viability was examined by CellTiter Glo kit (Promega #7570). First, transfer the appropriate volume (10 ml for Cat. #G7570) of CellTiter-Glo® Buffer into the amber bottle containing CellTiter-Glo® Substrate to reconstitute the lyophilized enzyme/substrate mixture. This forms the CellTiter-Glo® Reagent. Second, add CellTiter-Glo® Reagent in an equal volume (100 μl per well for 96-well plates) to all wells. Mix contents for 2 minutes on an orbital shaker to induce cell lysis. Incubate at room temperature for 15 minutes to stabilize luminescent signal. Then record luminescence. EC50 concentration was calculated by Prism 8 XY analysis nonlinear regression (curve fit-Log(inhibitor) vs response).

[1] = system: CUL4A^high xenograft and PDX tumors; test: CUL4A^high xenograft and PDX tumor growth; type: in vivo, mouse; conditions: 50 mg/kg intraperitoneal; breast cancer xenograft and colorectal cancer PDX models, FIGS. 8A-8C
Procedure: Measurements were performed according to the following procedure. Mouse body weights were monitored using a scale. Tumors were assessed and volumes measured with fine calipers twice a week. The tumor volumes were calculated with the formula: Volume=(Length×Width^2)/2. Compound PA99 was administered via intraperitoneal doses in an amount of 50 mg/kg every X days, where X is the number of days shown in FIGS. 8A-8C.

[2] = system: CUL4A^high MDA-MB-468 and CUL4^low (T47D) cells; test: Selective killing of CUL4A^high tumors (MDA-MB-468 vs T47D, Cell Titer Glo); type: cell-based; conditions: FIG. 10, 8 days treatment
Procedure: CUL4A^high MDA-MB-468 breast cancer cells and CUL4^low (T47D) cells were seeded in 96 well plates. After 24 hours, cells were treated with DMSO or compound PA99. After 8 days treatment, cell viability was examined by using CellTiter Glo kit (Promega #7570) following the manufacturer's guidelines. EC50 concentration was calculated by Prism 8 XY analysis nonlinear regression (curve fit-Log(inhibitor) vs response). Lower EC50 indicates high cell killing potential in CUL4^high MDA-MB-468 cells.

In the case of `CN(c1ccc(-c2nc(C(=O)O)cc3c2[nH]c2cccc(F)c23)cc1)S(=O)(=O)c1ccccc1` [PA99, 5-fluoro-1-(4-(N-methylphenylsulfonamido)phenyl)-9H-pyrido[3,4-b]indole-3-carboxylic acid], the pEC50 (MCF7 breast cancer cells) was 4.71, the Tumor growth [1] was “suppression” and the “Killing of CUL4A^high tumors” value [2] was “selective killing”.
